# Data published in patent US11779628B2, “Use of cell-permeable peptide inhibitors of the JNK signal transduction pathway for the treatment of various diseases” (Xigen Inflammation Ltd., priority 2014, dated 2023).
# Where two headings read alike, the source gives them in different places.
# Columns and labels:
# [1] = tested on: Sprague-Dawley albino rats, light-induced photoreceptor cell death; assay type: in vivo; details: Day 23
# From the text: The aim of this study was to investigate the dose effect of XG-102 on light-induced photoreceptor cell death.
# 50 male Rat (Sprague-Dawley (albinos rat); approximately 8 weeks; 200-250 g (on ordering)) have been used. Rats are most commonly used in this experimental model. Animals were examined before study, and particular attention was paid to the eyes. Animals were held in observation for 2 weeks following their arrival. Animals were observed daily for signs of illness. Only healthy animals with no ocular abnormalities were accepted for use in experiments. Animals were housed individually in standard cages (420×270×190 mm)^ii. All animals were housed under identical environmental conditions. The temperature was held at 22±2° C. and the relative humidity at 55±10%. Rooms were continuously ventilated (15 times per hour). A cycle of 12 hours light (200-300 lx) and 12 hours darkness was automatically controlled. These parameters were continuously controlled and recorded. Throughout the study, animals had free access to food and water. They were fed a standard dry pellet diet. Tap water was available ad libitum from plastic bottles.
# Forty-eight (48) rats were randomly divided into six (6) groups of eight (8) animals each. Test item (XG-102: 30 mg/ml, 3 mg/ml, and 0.3 mg/ml) and vehicle (0.9% NaCl) were administered by intravitreal injection in right eyes the day before induction. The reference (Phenyl-N-test-Butylnitrone (PBN) (50 mg/kg)) and vehicle were intraperitoneally injected 30 min before induction then, 3 times during 12 hours of light exposition, then once after induction. Animals were placed in constant light (7000 lux) for 24 h. Electroretinograms (ERG) were recorded before light treatment and on days 9, 16 and 23 after induction. Eyes were then taken for histology and outer nuclear layer (ONL) thickness assessment. The table below summarizes the allocation of animals in treatment groups:
# For the intravitreal injection animals were anesthetized by intramuscular injection of a mixture of xylazine/ketamine. Test item (5 μl) and vehicle (5 μl) were injected in the right eye. The injection was performed under an operating microscope in the supratemporal area at pars plana using a 33G-needle mounted on a 50 μl Hamilton. The filled syringe was mounted into the UltraMicroPump III to achieve accurate injection in microliter range. Reference and vehicle were injected intraperitoneally at a dose volume of 2.5 ml/kg using a 30G-needle mounted on a 1 ml-syringe.
# Light Exposure: The rats that had been dark-adapted overnight were exposed for 24 hours to a continuous white fluorescent light (7000 Ix) in clear plastic cages. Each cage contained one rat. After exposure, the rats returned to rearing cyclic light conditions.
# ERG was recorded before induction and 7, 14 and 21 days after cessation of exposure (Days 9, 16 and 23) on right eyes of dark-adapted and anesthetized animals. The latency times (for a- and b-wave) and the a-wave and b-wave amplitudes were measured for each ERG; the latency times were expressed as millisecond and the a-wave and b-wave as a percentage of the baseline value obtained before light exposure. 15 min before measurement 10 μl Mydriaticum® (0.5% tropicamide) were instilled for pupillary dilatation.
# ERG Parameters: • Color: white maximum. • Maximum intensity: 2.6 cd·s/m^2 (0 dB); Duration 0.24 ms; number of flash: 1. • Filter: 50 Hz. • Impedence Threshold: 90 kΩ.
# Measurement of the ONL Thickness: After ERG testing, animal was euthanized by an overdose of pentobarbital and the right eyes were enucleated, fixed and embedded in paraffin. Sections (5 μm thick) were performed along the vertical meridian and stained with Trichrome-Masson. The vertical meridian included the optic nerve.
# Group mean values and standard deviation were calculated. A statistical Mann and Whitney test was used to evaluate the differences between pair-wise groups. For comparison between time-point into each vehicle groups, a Friedman test was used. […]
# rabbits = experiment: Ocular MTD studies, sub-conjunctival administration; assay type: in vivo, rabbit
# From the text: Despite technical advances in ocular surgery, the physical trauma of this procedure continues to induce post-operative ocular inflammation warranting treatment. In ocular tissue, arachidonic acid is metabolized by cyclooxygenase (COX) to prostaglandins (PG) which are the most important lipid-derived mediators of inflammation. Surgical trauma causes a trigger of the arachidonic acid cascade which in turn generates PGs by activation of COX-1 and COX-2. Phospholipids in the cell membrane are the substrate for phospholipase A to generate arachidonic acid from which a family of chemically distinct PGs and leukotriens are produced. The ‘golden standard’ for the treatment of ocular inflammation are topical corticosteroids and/or Non-Steroidal Anti-inflammatory Drugs (NSAIDs). Side effects reported with (short-term) corticosteroid use include cataract formation, increased Intra Ocular Pressure (IOP), increased susceptibility to viral infections and retardation of the corneal epithelial and stromal wound healing. In addition, prolonged treatment with corticosteroids have been known to induce systemic side effects such as glucose impairment, hypertension, development of glaucoma, visual acuity defects, loss of visual field, and posterior subcapsular cataract formation. […]
smiles,measurement,setting,value
CC(C)C[C@@H](NC(=O)[C@@H](Cc1ccccc1)NC(=O)[C@H]1CCCN1C(=O)[C@@H](CCC(N)=O)NC(=O)[C@H](NC(=O)[C@H]1CCCN1C(=O)[C@@H](CCCNC(=N)N)NC(=O)[C@@H](CO)NC(=O)[C@@H](CCC(N)=O)NC(=O)[C@H](N)CC(=O)O)C(C)C)C(=O)N[C@H](CC(N)=O)C(=O)N[C@H](CC(C)C)C(=O)N[C@@H](C(=O)N[C@@H](C(=O)N1CCC[C@@H]1C(=O)N[C@H](CCCNC(=N)N)C(=O)N[C@H](CCCCN)C(=O)N1CCC[C@@H]1C(=O)N[C@H](CCCNC(=N)N)C(=O)N1CCC[C@@H]1C(=O)N1CCC[C@@H]1C(=O)N[C@H](CCCNC(=N)N)C(=O)N[C@H](CCCNC(=N)N)C(=O)N[C@H](CCCNC(=N)N)C(=O)N[C@H](CCC(N)=O)C(=O)N[C@H](CCCNC(=N)N)C(=O)N[C@H](CCCNC(=N)N)C(=O)N[C@H](CCCCN)C(=O)N[C@H](CCCCN)C(=O)N[C@H](CCCNC(=N)N)C(=O)NCC(=O)O)[C@H](C)O)[C@H](C)O [XG-102],protection of ONL thickness,[1]; high dose XG-102,No protection was observed with high dose XG-102
same,recovery of the a-wave (% of baseline),[1]; low dose 1.5 μg/eye,48.3%
same,loss of the mean ONL thickness,[1]; low dose XG-102,40%
same,loss of the mean ONL thickness,[1]; mid dose XG-102,40%
same,No Observed Adverse Effect Level (NOAEL),rabbits,~600 µg
